Among the data in US7566722B2, “Triazolopyrimidine derivatives as ADP P2Y12 receptor antagonists” (Janssen Pharmaceutica, N.V., priority 2006, dated 2009) are IC50 values, retold here.

For one assay, the target named is T1, ADP P2Y12 receptor (Homo sapiens, UniProt Q9H244).
T1 construct: expressed in transfected cells
Nature of the assay: FLIPR calcium assay transducing Gi-coupled signaling to the Gq pathway (inhibition of ADP-induced calcium mobilization). As to conditions: HEK 293 cells co-transfected with P2Y12 and Gqi5, ADP at EC60-70 dose. Format: cell-based. The source says:
A FLIPR Calcium Assay Transducing Gi-Coupled Signaling to the Gq Pathway
The ADP P2Y12 subtype is a Gi coupled GPCR, which mediates inhibition of adenylate cyclase leading to decreased cAMP while Gq proteins primarily activate phospholipase C, which stimulates inositol-1,4,5-triphosphate (IP3) formation and a subsequent increase in intracellular Ca^2+ concentration, which can be easily measured by FLIPR. Prior to the development of a method to convert a Gi coupled GPCR signaling to a Gq coupled GPCR signaling, a significant barrier existed for the functional testing and screening of Gi coupled GPCRs. One popular method, GTPγS migration, is slow, produces a small signal and generates radioactive waste. The discovery that a small switch in the amino acid sequence in the Gi protein could convert it to a protein mediating a Gq coupled response has led to the development of robust, high throughput assays for this valuable receptor subtype.
The FLIPR-based HTS assay transducing the Gi signaling to the Gq pathway is described below.
pcDNA3hygroP2Y12 containing a hygromycin resistance gene and pLEC1-Gqi5-HA containing a neomycin resistance gene (licensed from Molecular Devices, Sunnyvale, Calif.) were co-transfected into Human embryonic kidney (HEK) 293 cells with SuperFect (Qiagen, Valencia, Calif.). Cell clones were selected in the presence of 600 μg/ml hygromycin B (Life Technologies, Carlsbad, Calif.) and 1 mg/ml of G418 (Mediatech, Herndon, Va.). Drug resistant colonies were picked and screened by FLIPR and the gene expression was further confirmed by RT-PCR. Positive clones were maintained in growth medium (DMEM supplemented with 10% FBS, 1× p/s) containing 400 μg/ml of G418 and 200 μg/ml of hygromycin.
The day before the assay, cells are seeded in clear, flat-bottom black-wall, tissue culture treated polystyrene 96- or 384-well plates and incubated at 37° C., 5% CO2. 50 μl of complete dye loading solution (FLIPR Calcium Assay Kit, Molecular Devices) was added to each well containing 100 μl of culture media. The cells were incubated for at least 30 min at 37° C., in 5% CO2 before initiating the assay on the FLIPR. The agonist effect of ADP was tested and EC50 was determined prior to compound testing. The EC60-70 dose was used.
The antagonist compounds were prepared at 4× and the agonists were diluted at 5× the concentration desired in the test wells, and then aliquoted into the sample plates. The sample plates and the cell plate were placed in the FLIPR assay chamber. A first addition (50 μl) was made at the start of reading and a second addition (50 μl) was made after 5 min of reading. Raw fluorescence data was exported for each well and tabulated versus time within an ASCII file. Data was then imported into Excel and the peak response over the basal level was determined. The percent inhibition for each compound was calculated by the change in fluorescent density as a % inhibition of the control ADP response to obtain an IC50, as shown in Table 1 (wherein N/A means Not Applicable).
In general terms: A change in cytosolic calcium serves as a functional read-out for many receptors and channels.

For the next assay, the target named is T2, P2Y12 receptor (Homo sapiens, UniProt Q9H244).
T2 construct: expressed in transfected cells
Description: Whole cell receptor binding assay, 2-MeS[3H]-ADP. As to conditions: HEK 293 cells stably transfected with P2Y12; 2-MeS[3H]-ADP 3 nM; 30 min at 37° C.; read-out: Inhibition of Receptor Binding (IC50 μM). The protocol:
A whole cell-binding assay for 2-MeS [^3H]-ADP (Custom synthesized by Amersham BioScience, Piscataway, N.J.) to the P2Y12 receptor was performed.
A P2Y12 cDNA containing hygromycin resistant gene was transfected in HEK 293 cells. A stable cell line was obtained by a cloning selection method. The cells were cultured in DMEM supplemented with 10% FBS and 1× of p/s.
On the day of the assay, the cells were harvested and resuspended in 0.25% BSA-DMEM and adjusted to a cell concentration of 1.6×10^6/ml. 15 μl of each compound was mixed with 120 μl of cell suspension in 96 well assay plates and incubated for 5 min prior to the addition of the radio-labeled ligand 2-MeS[^3H]-ADP (3 nM final in 0.25% BSA-DMEM) or unlabeled […] (for non-specific binding). The reaction was then incubated for 30 min at 37° C. and stopped by adding cold DMEM. The labeled and unlabeled cells were separated by a filtration method using a Packard Filtermate 196 on to the unfilter-96 GF/B plate. The plates were dyed in a 37° C. oven for 1-2 hours and 50 μl of MicroScint-20 (PerkinElmer) was added to each well. The radioactivity was measured using a TOPCOUNT beta counter (Packard). The percent inhibition for each compound was calculated by the change in radioactivity as a % inhibition of the control to obtain an IC50, as shown in Table 2.

For the next assay, the system named is platelets. Description: In vitro platelet aggregation (ADP-induced, washed platelets). In kind it is cell-based. Conditions: Homo sapiens, washed platelets from healthy volunteers, agonist giving 60-70% aggregation, % inhibition of control ADP response. The protocol:
Platelet aggregation studies were performed according to a published method (Bednar, B., Condra, C., Gould, R. J., and Connolly, T. M., Throm. Res., 77:453-463 (1995). Platelet-rich plasma (PRP) concentrates prepared from healthy volunteers who were aspirin free for at least 7 days by venipuncture using ACD-A as anticoagulant was purchased from Biological Specialties, Inc. (Colmar, Pa.). PRP was centrifuged at 730 g for 15 min. The platelet pellet was washed twice in CGS buffer (13 mM sodium citrate, 30 mM glucose, 120 mM NaCl, pH 6.5) containing 1 μ/ml apyrase (grade V, Sigma-Aldrich, St. Louis, Mo.), 1 mM EGTA, and resuspended in Tyrode's buffer (140 mM NaCl, 2.7 mM KCl, 12 mM NaHCO3, 0.76 mM Na2HPO4, 5.5 mM dextrose, 5.0 mM Hepes, 0.2% BSA, pH 7.4). The platelets were diluted to 3×10^8 platelets/ml and kept >45 min at 37° C. before use. 105 μl of washed platelets, 2 mM CaCl2 and […] of fibrinogen were added to a 96-well microliter plate.
Platelet aggregation was initiated by the addition of serial concentrations of ADP (BioData Corp. Horsham, Pa.). Buffer was added to one set of control wells. The assay plate was stirred constantly and intermittently placed in a microplate reader (Softmax, Molecular Devices, Menlo Park, Calif.) to read optical density (650 nm) at 0 and 5 minutes after the addition of the compound solutions. Aggregation was calculated as the decrease in optical density between the time 0- and 5-min measurements and expressed as % of aggregation. For the inhibition assay, platelet aggregation was conducted as described above except for compound additions. Test compounds were prepared in 100% DMSO and stored.
On the day of the assay, test compounds were diluted in the buffer containing 3% of DMSO as a 10× working solution. 15 μl of compound solutions were added to 105 μl of platelets 5 min prior to the addition of CaCl2 and fibrinogen.

T2 sequence (Q9H244 whole entry): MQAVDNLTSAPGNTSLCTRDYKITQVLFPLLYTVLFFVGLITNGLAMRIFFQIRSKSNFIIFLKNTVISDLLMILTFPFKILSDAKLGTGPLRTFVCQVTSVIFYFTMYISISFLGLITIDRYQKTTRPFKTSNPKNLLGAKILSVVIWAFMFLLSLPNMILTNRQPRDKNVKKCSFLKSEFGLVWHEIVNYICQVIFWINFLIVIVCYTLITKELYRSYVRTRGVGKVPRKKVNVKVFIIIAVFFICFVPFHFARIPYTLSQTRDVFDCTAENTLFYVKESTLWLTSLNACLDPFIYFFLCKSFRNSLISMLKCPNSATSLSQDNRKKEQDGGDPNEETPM
T1 sequence (Q9H244 whole entry): as above

On to `CCCCNc1nc(SCCC)nc2c1nnn2[C@@H]1C[C@H](c2nnc[nH]2)[C@@H](O)[C@H]1O` [Cpd 20, (1R,2S,3R,5R)-3-(7-butylamino-5-propylsulfanyl-[1,2,3]triazolo[4,5-d]pyrimidin-3-yl)-5-(4H-[1,2,4]triazol-3-yl)-cyclopentane-1,2-diol], for which the IC50 at ADP P2Y12 receptor turned out to be 0.765 µM; on P2Y12 receptor, 0.422 µM; with platelets, 0.198 µM.

What is called IC50 is the concentration at which inhibition is half-maximal.
